In US20050239656A1, “Pyridine compounds or salts thereof and herbicides containing the same” (priority 2002, published 2005):

Experiments:
barnyardgrass [1] = assay: Test Example 2: soil surface treatment, upland pot test; format: in vivo, Echinochloa crus-galli L.; conditions: observed 20th to 28th day
Description: (§1) Upland field soil was put into a 1/170,000 ha pot, and seed of various plants (barnyardgrass, crabgrass, green foxtail, redroot pigweed, prickly sida, velvetleaf, rice, wheat, corn, soybean) were sown. On the 1st day after the sowing, a wettable powder or emulsifiable concentrate having the compound of the present invention formulated in accordance with a usual formulation method, was weighed so that the active ingredient would be a predetermined amount, and diluted with water in an amount of 1,500 L/ha. The herbicide thus adjusted was applied by a small size sprayer for soil surface treatment. On the 20th to 28th days after the application of the herbicide, the growth of the respective plants was visually observed, and the herbicidal effects were evaluated by the growth controlling degrees (%) ranging from 0 (equivalent to the non-treated plot) to 100 (complete kill), whereby the results shown in Table 4, were obtained.

crabgrass = assay: as above; format: in vivo, Digitaria sanguinalis L.; conditions: observed 20th to 28th day
Description: as §1

green foxtail = assay: as above; format: in vivo, Setaria viridis L.; conditions: observed 20th to 28th day
Description: as §1

redroot pigweed = assay: as above; format: in vivo, Amaranthus retroflexus L.; conditions: observed 20th to 28th day
Description: as §1

prickly sida = assay: as above; format: in vivo, Sida spinosa L.; conditions: observed 20th to 28th day
Description: as §1

velvetleaf = assay: as above; format: in vivo, Abutilon theophrasti MEDIC.; conditions: observed 20th to 28th day
Description: as §1

rice = assay: as above; format: in vivo, Oryza sativa L.; conditions: observed 20th to 28th day
Description: as §1

corn = assay: as above; format: in vivo, Zea mays L.; conditions: observed 20th to 28th day
Description: as §1

soybean = assay: as above; format: in vivo, Glycine max Merr.; conditions: observed 20th to 28th day
Description: as §1

barnyardgrass [2] = assay: Test Example 3: paddy pot test, application under submerged conditions; format: in vivo, Echinochloa crus-galli L.; conditions: submerged application at 0.5 leaf stage, visually observed 14 days after application, 0 = non-treated, 100 = complete kill
Method in brief: (§2)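 Barnyardgrass and japanese bulrush sown in flooded paddy soil in greenhouse pots, japanese ribbon wapato tubers planted 1–2 days later; water depth kept at 3–4 cm. Diluted wettable powder or emulsifiable concentrate applied into water at 0.5-leaf or primary-leaf stage at set active-ingredient doses. Growth control scored visually at 14 days, 0 (untreated) to 100% (complete kill).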

japanese bulrush = assay: as above; format: in vivo, Scirpus juncoides; conditions: submerged application at 0.5 leaf stage, visually observed 14 days after application, 0 = non-treated, 100 = complete kill
Method in brief: as §2

japanese ribbon wapato = assay: as above; format: in vivo, Sagittaria pygniaea; conditions: submerged application at primary leaf stage, visually observed 14 days after application, 0 = non-treated, 100 = complete kill
Method in brief: as §2

rice (var. Nihonbare) = assay: Test Example 3: paddy pot test, transplanted rice; format: in vivo, Oryza sativa L.; conditions: applied 4th day after transplantation, visually observed 21st day after application, 0 = non-treated, 100 = complete kill
Method in brief: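 Rice (var. Nihonbare) at 2 leaf stage transplanted 3 cm deep into puddled paddy soil under 3–4 cm flooding; on day 4 after transplanting, diluted wettable powder or emulsifiable concentrate applied by pipette under submerged conditions at a set active-ingredient dose. Growth scored visually 21 days after application, 0 (untreated) to 100 (complete kill) %.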

SMILES | Growth controlling degree (%) Barnyardgrass (barnyardgrass [1]; active ingredient 500 g/ha) [%] | Growth controlling degree (%) Crabgrass (crabgrass; active ingredient 500 g/ha) [%] | Growth controlling degree (%) Green foxtail (green foxtail; active ingredient 500 g/ha) [%] | Growth controlling degree (%) Redroot pigweed (redroot pigweed; active ingredient 500 g/ha) [%] | Growth controlling degree (%) Prickly sida (prickly sida; active ingredient 500 g/ha) [%] | Growth controlling degree (%) Velvetleaf (velvetleaf; active ingredient 500 g/ha) [%] | Growth controlling degree (%) Rice (rice; active ingredient 500 g/ha) [%] | Growth controlling degree (%) Corn (corn; active ingredient 500 g/ha) [%] | Growth controlling degree (%) Soyabean (soybean; active ingredient 500 g/ha) [%] | Growth controlling degree (%) Barnyardgrass (barnyardgrass [2]; active ingredient 250 g/ha) [%] | Growth controlling degree (%) Japanese bulrush (japanese bulrush; active ingredient 250 g/ha) [%] | Growth controlling degree (%) Japanese ribbon wapato (japanese ribbon wapato; active ingredient 250 g/ha) [%] | Growth controlling degree (%) Rice (rice (var. Nihonbare); active ingredient 250 g/ha) [%] | also measured
Cc1ccc(CC(=O)N(C)C(c2cnccc2C(F)(F)F)C(C)C)c(F)c1 (racemic) [I-109] | 0 | 98 | 70 | 70 | 0 | 0 | 20 | 10 | 0 | – | – | – | – | Growth controlling degree (%) Barnyardgrass (barnyardgrass [2]; active ingredient 125 g/ha): 95%; Growth controlling degree (%) Japanese bulrush (japanese bulrush; active ingredient 125 g/ha): 90%; Growth controlling degree (%) Japanese ribbon wapato (japanese ribbon wapato; active ingredient 125 g/ha): 60%; Growth controlling degree (%) Rice (rice (var. Nihonbare); active ingredient 125 g/ha): 0%
CCN(C(=O)Cc1ccc(C(F)(F)F)cc1)C(c1cnccc1C(F)(F)F)C(C)C (stereo not shown) [Compound I-79] | 100 | 100 | 100 | 80 | 100 | 80 | 10 | 10 | 10 | 100 | 70 | 40 | 20 | –
CC(C)C(c1cnccc1Cl)N(C)C(=O)Cc1ccccc1Cl (stereo not shown) [Compound I-81] | 98 | 90 | 70 | 70 | 10 | 0 | 0 | 0 | 0 | 98 | 95 | 0 | 10 | –
CC(C)C(c1cnccc1Cl)N(C)C(=O)COc1ccccc1 (stereo not shown) [Compound I-84] | 80 | 70 | 30 | 50 | 0 | 0 | 20 | 20 | 0 | 98 | 98 | 20 | 0 | –
CC(C)C(c1cnccc1C(F)(F)F)N(C)C(=O)Cc1cc(C(F)(F)F)ccc1F (stereo not shown) [Compound I-96] | 60 | 85 | 100 | 80 | 70 | 50 | 10 | 20 | 20 | 100 | 100 | 0 | 30 | –
CC(C)C(c1cnccc1C(F)(F)F)N(C)C(=O)Cc1cc(F)cc(C(F)(F)F)c1 (stereo not shown) [Compound I-97] | 60 | 98 | 100 | 60 | 90 | 40 | 40 | 20 | 10 | 100 | 80 | 0 | 0 | –
CCN(C(=O)Cc1ccc(F)cc1)C(c1cnccc1C(F)(F)F)C(C)C (stereo not shown) [Compound I-99] | 100 | 98 | 100 | 40 | 95 | 40 | 20 | 40 | 30 | 100 | 98 | 90 | 0 | –
CCN(C(=O)Cc1ccc(Cl)cc1)C(c1cnccc1C(F)(F)F)C(C)C (stereo not shown) [Compound I-100] | 98 | 98 | 100 | 10 | 70 | 10 | 30 | 30 | 0 | 100 | 95 | 30 | 10 | –
CCN(C(=O)Cc1ccccc1)C(c1cnccc1Cl)C(C)C (stereo not shown) [Compound I-102] | 100 | 98 | 100 | 20 | 60 | 0 | 10 | 35 | 20 | 98 | 100 | 60 | 10 | –
Cc1ccc(OCC(=O)N(C)C(c2cnccc2C(F)(F)F)C(C)C)cc1 (stereo not shown) [Compound I-239] | 60 | 95 | 90 | 70 | 80 | 30 | 0 | 10 | 10 | 98 | 98 | 70 | 0 | –
CC(C)C(c1cnccc1C(F)(F)F)N(C)C(=O)Cc1ccc(Cl)cc1 (stereo not shown) [I-23] | – | – | – | – | – | – | – | – | – | – | – | – | – | Growth controlling degree (%) Barnyardgrass (barnyardgrass [1]; active ingredient 250 g/ha): 95%; Growth controlling degree (%) Crabgrass (crabgrass; active ingredient 250 g/ha): 98%; Growth controlling degree (%) Green foxtail (green foxtail; active ingredient 250 g/ha): 98%; Growth controlling degree (%) Redroot pigweed (redroot pigweed; active ingredient 250 g/ha): 85%; Growth controlling degree (%) Prickly sida (prickly sida; active ingredient 250 g/ha): 98%; Growth controlling degree (%) Velvetleaf (velvetleaf; active ingredient 250 g/ha): 60%; Growth controlling degree (%) Rice (rice; active ingredient 250 g/ha): 0%; Growth controlling degree (%) Corn (corn; active ingredient 250 g/ha): 10%; Growth controlling degree (%) Soyabean (soybean; active ingredient 250 g/ha): 20%; Growth controlling degree (%) Japanese bulrush (japanese bulrush; active ingredient 500 g/ha): 90%; Growth controlling degree (%) Japanese ribbon wapato (japanese ribbon wapato; active ingredient 500 g/ha): 85%; Growth controlling degree (%) Rice (rice (var. Nihonbare); active ingredient 500 g/ha): 30%
